Data from PubChem BioAssay (NCI).
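Cultured in 96-well plates, cells were exposed to test compound for 48 hours across five concentrations. GI50 is the concentration that inhibits growth by half. TGI: concentration producing complete growth inhibition.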

Tests used:
Experiment in all cases: NCI-60 cell line screen, 48 h
NCI-H226 lung = tested on: NCI-H226 lung
NCI-H23 lung = tested on: NCI-H23 lung
NCI-H460 lung = tested on: NCI-H460 lung
NCI-H522 lung = tested on: NCI-H522 lung
NCI/ADR-RES ovarian = tested on: NCI/ADR-RES ovarian
OVCAR-4 ovarian = tested on: OVCAR-4 ovarian
OVCAR-5 ovarian = tested on: OVCAR-5 ovarian
OVCAR-8 ovarian = tested on: OVCAR-8 ovarian
PC-3 prostate = tested on: PC-3 prostate
RPMI-8226 leukemia = tested on: RPMI-8226 leukemia
RXF 393 renal = tested on: RXF 393 renal
SF-268 CNS = tested on: SF-268 CNS
SF-295 CNS = tested on: SF-295 CNS
SF-539 CNS = tested on: SF-539 CNS
SK-MEL-2 melanoma = tested on: SK-MEL-2 melanoma
SK-MEL-28 melanoma = tested on: SK-MEL-28 melanoma
SK-MEL-5 melanoma = tested on: SK-MEL-5 melanoma
SK-OV-3 ovarian = tested on: SK-OV-3 ovarian
SN12C renal = tested on: SN12C renal
SNB-19 CNS = tested on: SNB-19 CNS
SNB-75 CNS = tested on: SNB-75 CNS
SR leukemia = tested on: SR leukemia
SW-620 colon = tested on: SW-620 colon
T-47D breast = tested on: T-47D breast
TK-10 renal = tested on: TK-10 renal
U251 CNS = tested on: U251 CNS
UACC-257 melanoma = tested on: UACC-257 melanoma
UACC-62 melanoma = tested on: UACC-62 melanoma
UO-31 renal = tested on: UO-31 renal

Question: Which results are given for `CCOc1ccc(NC2=C(Cl)C(=O)c3nc(C)ccc3C2=O)cc1`?
Answer: TGI (NCI-H226 lung): 4520 nM; GI50 (NCI-H23 lung): 1350 nM; TGI (NCI-H23 lung): 2850 nM; GI50 (NCI-H460 lung): 3080 nM; TGI (NCI-H460 lung): 10400 nM; GI50 (NCI-H522 lung): 1750 nM; TGI (NCI-H522 lung): 3220 nM; GI50 (NCI/ADR-RES ovarian): 1700 nM; TGI (NCI/ADR-RES ovarian): 4110 nM; GI50 (OVCAR-4 ovarian): 1130 nM; TGI (OVCAR-4 ovarian): 2370 nM; GI50 (OVCAR-5 ovarian): 1920 nM; TGI (OVCAR-5 ovarian): 3460 nM; GI50 (OVCAR-8 ovarian): 1570 nM; TGI (OVCAR-8 ovarian): 3010 nM; GI50 (PC-3 prostate): 1300 nM; TGI (PC-3 prostate): 2770 nM; GI50 (RPMI-8226 leukemia): 1670 nM; TGI (RPMI-8226 leukemia): 5330 nM; GI50 (RXF 393 renal): 1570 nM; TGI (RXF 393 renal): 2960 nM; GI50 (SF-268 CNS): 1550 nM; TGI (SF-268 CNS): 3090 nM; GI50 (SF-295 CNS): 1860 nM; TGI (SF-295 CNS): 3430 nM; GI50 (SF-539 CNS): 1680 nM; TGI (SF-539 CNS): 3130 nM; GI50 (SK-MEL-2 melanoma): 1630 nM; TGI (SK-MEL-2 melanoma): 3030 nM; GI50 (SK-MEL-28 melanoma): 1730 nM; TGI (SK-MEL-28 melanoma): 3140 nM; GI50 (SK-MEL-5 melanoma): 1720 nM; TGI (SK-MEL-5 melanoma): 3110 nM; GI50 (SK-OV-3 ovarian): 11000 nM; TGI (SK-OV-3 ovarian): 30100 nM; GI50 (SN12C renal): 1580 nM; TGI (SN12C renal): 2990 nM; GI50 (SNB-19 CNS): 1680 nM; TGI (SNB-19 CNS): 3160 nM; GI50 (SNB-75 CNS): 1460 nM; TGI (SNB-75 CNS): 2790 nM; GI50 (SR leukemia): 1090 nM; TGI (SR leukemia): > 100000 nM; GI50 (SW-620 colon): 1830 nM; TGI (SW-620 colon): 3510 nM; GI50 (T-47D breast): 1010 nM; TGI (T-47D breast): 3910 nM; GI50 (TK-10 renal): 2300 nM; TGI (TK-10 renal): 3770 nM; GI50 (U251 CNS): 1800 nM; TGI (U251 CNS): 3540 nM; GI50 (UACC-257 melanoma): 1390 nM; TGI (UACC-257 melanoma): 2780 nM; GI50 (UACC-62 melanoma): 1810 nM; TGI (UACC-62 melanoma): 3290 nM; GI50 (UO-31 renal): 1430 nM; TGI (UO-31 renal): 2750 nM
